Assay results from patent publication US10711004B2 (Genentech, Inc., priority 2018, dated 2020).
Where two headings read alike, the source gives them in different places.

Molecular target: human TRPA1 channel (Homo sapiens (Human), UniProt O75762)
Test: hTRPA1 CHO Ca2+ FLIPR Tetra assay, block of cinnamaldehyde induced calcium influx
Format: cell-based
Conditions: CHO cells expressing TRPA1, Hill coefficient fixed to 1.5
Protocol: CHO cells expressing TRPA1 were plated into 384-well plates, incubated overnight at 37° C., and loaded with BD calcium indicator dye for 1 hr at 37° C. followed by 15 minutes at room temperature. The assay buffer was Hank's Balanced Salt Solution (HBSS) containing 20 mM HEPES (pH readjusted to 7.4) along with 0.02% BSA.
Following dye load and plate cool down, compounds were added to the cells using FLIPR Tetra. Plates were then incubated with compounds for 10 minutes or 90 minutes at room temperature prior to adding agonist. Following this incubation, about an EC50 concentration of cinnamaldehyde (75) was added to active the channels and block of cinnamaldehyde induced calcium influx was measured.
Fixing the Hill coefficient will generally reduce variability of the IC50 determination. The IC50 results were individually examined to make sure the MIN and MAX points were set correctly prior to validation of the results.

[1] = read-out: hTRPA1 IC50 (10 min), compounds incubated 10 minutes at room temperature before cinnamaldehyde agonist
[2] = read-out: hTRPA1 IC50 (90 min), compounds incubated 90 minutes at room temperature before cinnamaldehyde agonist

Sequence of human TRPA1 channel (O75762 whole entry): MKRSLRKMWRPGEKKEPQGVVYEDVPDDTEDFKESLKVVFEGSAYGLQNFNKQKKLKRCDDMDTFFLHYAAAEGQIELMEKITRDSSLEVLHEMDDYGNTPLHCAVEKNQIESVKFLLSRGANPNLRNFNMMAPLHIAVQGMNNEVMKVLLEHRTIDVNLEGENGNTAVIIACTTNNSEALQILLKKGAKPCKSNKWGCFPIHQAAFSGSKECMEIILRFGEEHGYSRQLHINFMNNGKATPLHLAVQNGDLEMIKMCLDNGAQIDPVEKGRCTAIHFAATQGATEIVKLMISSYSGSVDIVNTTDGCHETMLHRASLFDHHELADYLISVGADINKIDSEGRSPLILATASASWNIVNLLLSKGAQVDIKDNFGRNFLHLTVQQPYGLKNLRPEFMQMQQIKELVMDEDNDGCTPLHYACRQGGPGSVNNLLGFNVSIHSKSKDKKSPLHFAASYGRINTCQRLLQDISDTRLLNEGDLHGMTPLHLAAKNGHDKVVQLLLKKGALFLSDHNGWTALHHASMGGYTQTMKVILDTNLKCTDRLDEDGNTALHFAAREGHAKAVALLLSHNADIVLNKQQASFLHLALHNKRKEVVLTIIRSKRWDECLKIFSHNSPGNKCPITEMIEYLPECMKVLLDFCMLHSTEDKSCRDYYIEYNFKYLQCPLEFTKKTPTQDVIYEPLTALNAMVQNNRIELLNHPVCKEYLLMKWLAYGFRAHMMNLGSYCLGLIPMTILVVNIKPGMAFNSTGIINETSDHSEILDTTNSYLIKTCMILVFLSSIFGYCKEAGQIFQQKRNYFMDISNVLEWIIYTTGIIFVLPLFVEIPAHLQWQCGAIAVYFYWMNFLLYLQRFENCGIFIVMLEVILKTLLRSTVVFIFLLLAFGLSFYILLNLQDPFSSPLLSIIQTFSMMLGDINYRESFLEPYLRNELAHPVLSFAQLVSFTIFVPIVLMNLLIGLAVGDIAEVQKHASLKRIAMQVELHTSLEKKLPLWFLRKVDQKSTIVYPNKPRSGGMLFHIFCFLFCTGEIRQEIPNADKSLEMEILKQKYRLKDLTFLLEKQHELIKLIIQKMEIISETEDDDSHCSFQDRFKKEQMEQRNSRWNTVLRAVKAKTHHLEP

IC50 [1]	IC50 [2]	Compound
0.0527 µM		Cn1cnc2ncn(Cc3nc([C@H]4[C@@H]5CN(c6cccc(C(F)(F)F)c6)C[C@@H]54)no3)c(=O)c21 [Example Compound 30, 7-methyl-1-[[3-[(1R,5S,6r)-3-[3-(trifluoromethyl)phenyl]-3-azabicyclo[3.1.0]hexan-6-yl]-1,2,4-oxadiazol-5-yl]methyl]purin-6-one]
0.0196 µM	0.0053 µM	Cn1cnc2ncn(Cc3nc([C@@H]4[C@H]5C=C(c6ccc(C#N)c(F)c6)C[C@H]54)no3)c(=O)c21 [Example Compound 283, 2-fluoro-4-[(1R,5R,6S)-6-[5-[(7-methyl-6-oxo-purin-1-yl)methyl]-1,2,4-oxadiazol-3-yl]-3-bicyclo[3.1.0]hex-2-enyl]benzonitrile]
0.119 µM		Cn1cnc2ncn(Cc3nc([C@H]4[C@@H]5CN(c6cccc(OC(F)(F)F)c6)C[C@@H]54)no3)c(=O)c21 [Example Compound 4, 7-methyl-1-[[3-[(1R,5S,6r)-3-(3-trifluoromethoxy)phenyl-3-azabicyclo[3.1.0]hexan-6-yl]-1,2,4-oxadiazol-5-yl]methyl]purin-6-one]
0.015 µM	0.0074 µM	Cn1cnc2ncn(Cc3nc([C@H]4[C@@H]5CN(c6ccc(Cl)cc6F)C[C@@H]54)no3)c(=O)c21 [Example Compound 276, 7-methyl-1-[[3-[(1S,5R)-3-(4-chloro-2-fluorophenyl)-3-azabicyclo[3.1.0]hexan-6-yl]-1,2,4-oxadiazol-5-yl]methyl]purin-6-one]
0.254 µM	0.08 µM	Cn1cnc2ncn(Cc3nc([C@@H]4[C@H]5CC[C@H](Oc6ccccc6)[C@H]54)no3)c(=O)c21 [Example Compound 240, 7-methyl-1-[[3-[(1R,2S,5R,6R)-2-phenoxy-6-bicyclo[3.1.0]hexanyl]-1,2,4-oxadiazol-5-yl]methyl]purin-6-one]
0.0128 µM	0.0025 µM	Cn1cnc2ncn(Cc3nc([C@H]4[C@@H]5CN(c6cccc(F)c6F)C[C@@H]54)no3)c(=O)c21 [Example Compound 100, 1-((3-((1R,5S,6r)-3-(2,3-difluorophenyl)-3-azabicyclo[3.1.0]hexan-6-yl)-1,2,4-oxadiazol-5-yl)methyl)-7-methyl-1,7-dihydro-6H-purin-6-one]
0.0213 µM	0.0044 µM	Cn1cnc2ncn(Cc3nc([C@H]4[C@@H]5CN(c6cccc(Cl)c6F)C[C@@H]54)no3)c(=O)c21 [Example Compound 236, 1-((3-((1R,5S,6r)-3-(3-chloro-2-fluorophenyl)-3-azabicyclo[3.1.0]hexan-6-yl)-1,2,4-oxadiazol-5-yl)methyl)-7-methyl-1,7-dihydro-6H-purin-6-one]
0.169 µM		Cn1cnc2ncn(Cc3nc([C@H]4[C@@H]5CN(c6cnc7ccccc7c6)C[C@@H]54)no3)c(=O)c21
0.00696 µM	0.0046 µM	Cn1cnc2ncn(Cc3nc([C@H]4[C@@H]5C=C(c6ccc(F)cc6F)C[C@@H]54)no3)c(=O)c21 [Example Compound 269, 7-methyl-1-[[3-[(1S,5S,6R)-3-(2,4-difluorophenyl)-6-bicyclo[3.1.0]hex-2-enyl]-1,2,4-oxadiazol-5-yl]methyl]purin-6-one]
0.00748 µM	0.003 µM	Cn1cnc2ncn(Cc3nc([C@H]4[C@@H]5C=C(c6ccc(F)cc6)C[C@@H]54)no3)c(=O)c21 [Example Compound 125, 1-((3-((1S,5S,6R)-3-(4-fluorophenyl)bicyclo[3.1.0]hex-2-en-6-yl)-1,2,4-oxadiazol-5-yl)methyl)-7-methyl-1,7-dihydro-6H-purin-6-one]
0.778 µM		Cn1cnc2ncn(Cc3nc([C@H]4[C@@H]5CN(c6cccnc6)C[C@@H]54)no3)c(=O)c21 [Example Compound 18, 7-methyl-1-[[3-[(1R,5S,6r)-3-(3-pyridyl)-3-azabicyclo[3.1.0]hexan-6-yl]-1,2,4-oxadiazol-5-yl]methyl]purin-6-one]

Further lines, the compound ahead of its results:

Compound	IC50 [1]	IC50 [2]
Cn1nnc2ncn(Cc3nc([C@H]4[C@@H]5CN(c6cc(Cl)ccn6)C[C@@H]54)no3)c(=O)c21 [Example Compound 130, 6-((3-((1R,5S,6r)-3-(4-chloropyridin-2-yl)-3-azabicyclo[3.1.0]hexan-6-yl)-1,2,4-oxadiazol-5-yl)methyl)-1-methyl-1,6-dihydro-7H-[1,2,3]triazolo[4,5-d]pyrimidin-7-one]	0.0745 µM	0.044 µM
Cn1c(=O)c2c(ncn2Cc2nc([C@H]3[C@@H]4CN(c5cccc(Cl)c5)C[C@@H]43)no2)n(C)c1=O [Example Compound 215, 7-((3-((1R,5S,6r)-3-(3-chlorophenyl)-3-azabicyclo[3.1.0]hexan-6-yl)-1,2,4-oxadiazol-5-yl)methyl)-1,3-dimethyl-3,7-dihydro-1H-purine-2,6-dione]	0.0565 µM	
Cn1cnc2ncn(Cc3nc([C@H]4[C@@H]5CN(c6ccc(C#N)cc6)C[C@@H]54)no3)c(=O)c21 [Example Compound 192, 4-((1R,5S,6r)-6-(5-((7-methyl-6-oxo-6,7-dihydro-1H-purin-1-yl)methyl)-1,2,4-oxadiazol-3-yl)-3-azabicyclo[3.1.0]hexan-3-yl)benzonitrile]	0.0274 µM	0.013 µM
Cn1c(NC2CCOCC2)nc2ncn(Cc3nc([C@H]4[C@@H]5C=C(c6ccccc6)C[C@@H]54)no3)c(=O)c21 [Example Compound 245, 7-methyl-1-[[3-[(1S,5S,6R)-3-phenyl-6-bicyclo[3.1.0]hex-2-enyl]-1,2,4-oxadiazol-5-yl]methyl]-8-(tetrahydropyran-4-ylamino)purin-6-one]	0.0799 µM	0.043 µM
Cn1cnc2ncn(Cc3nc([C@H]4[C@@H]5CN(c6ccc7c(c6)CCCC7)C[C@@H]54)no3)c(=O)c21 [Example Compound 136]	0.685 µM	
O=c1c2cccnc2ncn1Cc1nc([C@H]2C[C@](O)(c3ccc(Cl)cc3)C2)no1 [Example Compound 11, 3-((3-((1s,3s)-3-(4-chlorophenyl)-3-hydroxycyclobutyl)-1,2,4-oxadiazol-5-yl)methyl)pyrido[2,3-d]pyrimidin-4(3H)-one]	0.261 µM	
Cc1cnn2ncn(Cc3nc([C@H]4C[C@](F)(c5cccc(Cl)c5)C4)no3)c(=O)c12 [Example Compound 253, 3-[[3-[trans-3-(3-chlorophenyl)-3-fluoro-cyclobutyl]-1,2,4-oxadiazol-5-yl]methyl]-5-methyl-pyrazolo[5,1-f][1,2,4]triazin-4-one]	0.0435 µM	0.031 µM
Cn1nnc2ncn(Cc3nc([C@@H]4CC[C@@H](c5ccc(F)cc5)C4)no3)c(=O)c21 [Example Compound 106, 6-((3-((1R,3R)-3-(4-fluorophenyl)cyclopentyl)-1,2,4-oxadiazol-5-yl)methyl)-1-methyl-1,6-dihydro-7H-[1,2,3]triazolo[4,5-d]pyrimidin-7-one]	0.0403 µM	0.044 µM
O=c1c2cccnc2ncn1Cc1nc([C@H]2C[C@](F)(c3cccc(Cl)c3)C2)no1 [Example Compound 198, 3-((3-((1s,3s)-3-(3-chlorophenyl)-3-fluorocyclobutyl)-1,2,4-oxadiazol-5-yl)methyl)pyrido[2,3-d]pyrimidin-4(3H)-one]	0.0587 µM	
O=c1c2cccnc2ncn1Cc1nc([C@@H]2[C@H]3C=C(c4cccc(Cl)c4)C[C@H]32)no1 [Example Compound 181, 3-((3-((1R,5R,6S)-3-(3-chlorophenyl)bicyclo[3.1.0]hex-2-en-6-yl)-1,2,4-oxadiazol-5-yl)methyl)pyrido[2,3-d]pyrimidin-4(3H)-one]	0.0218 µM	0.021 µM
CC(=O)Nc1nc2ncn(Cc3nc([C@H]4[C@@H]5C=C(c6ccccc6)C[C@@H]54)no3)c(=O)c2n1C [Example Compound 241, N-[7-methyl-6-oxo-1-[[3-[(1S,5S,6R)-3-phenyl-6-bicyclo[3.1.0]hex-2-enyl]-1,2,4-oxadiazol-5-yl]methyl]purin-8-yl]acetamide]	0.0669 µM	0.018 µM
O=c1c2cccnc2cnn1Cc1nc([C@H]2[C@@H]3CN(c4cccc(Cl)c4)C[C@@H]32)no1 [Example Compound 214, 6-((3-((1R,5S,6r)-3-(3-chlorophenyl)-3-azabicyclo[3.1.0]hexan-6-yl)-1,2,4-oxadiazol-5-yl)methyl)pyrido[2,3-d]pyridazin-5(6H)-one]	0.00288 µM	
O=c1c2cccnc2ncn1Cc1nc([C@H]2[C@@H]3CN(c4ccccc4)C[C@@H]32)no1 [Example Compound 194, 3-((3-((1R,5S,6r)-3-phenyl-3-azabicyclo[3.1.0]hexan-6-yl)-1,2,4-oxadiazol-5-yl)methyl)pyrido[2,3-d]pyrimidin-4(3H)-one]	0.0201 µM	0.015 µM
Cc1ccnc2ncn(Cc3nc([C@H]4[C@@H]5Oc6c(Cl)cccc6[C@@H]54)no3)c(=O)c12 [Example Compound 165, 3-((3-((1S,1aR,6bS)-3-chloro-1a,6b-dihydro-1H-cyclopropa[b]benzofuran-1-yl)-1,2,4-oxadiazol-5-yl)methyl)-5-methylpyrido[2,3-d]pyrimidin-4(3H)-one]	0.0222 µM	
O=c1c2c(Cl)ccnc2ncn1Cc1nc([C@H]2C[C@](F)(c3ccc(Cl)cc3)C2)no1 [Example Compound 121, 5-chloro-3-((3-((1s,3s)-3-(4-chlorophenyl)-3-fluorocyclobutyl)-1,2,4-oxadiazol-5-yl)methyl)pyrido[2,3-d]pyrimidin-4(3H)-one]	0.0131 µM	0.022 µM
